We go through twelve molecules from PMC10709440, “High-throughput ligand profile characterization in novel cell lines expressing seven heterologous insect olfactory receptors for the detection of volatile plant biomarkers” (Scientific Reports, 2023).

Read-outs that look alike come from different tables or passages of the source.

The assay deals with T1, Drosophila OR85b (Drosophila melanogaster, UniProt Q9VHQ7).
T1 construct: expressed in transfected cells
T1 sequence (Q9VHQ7 1-390): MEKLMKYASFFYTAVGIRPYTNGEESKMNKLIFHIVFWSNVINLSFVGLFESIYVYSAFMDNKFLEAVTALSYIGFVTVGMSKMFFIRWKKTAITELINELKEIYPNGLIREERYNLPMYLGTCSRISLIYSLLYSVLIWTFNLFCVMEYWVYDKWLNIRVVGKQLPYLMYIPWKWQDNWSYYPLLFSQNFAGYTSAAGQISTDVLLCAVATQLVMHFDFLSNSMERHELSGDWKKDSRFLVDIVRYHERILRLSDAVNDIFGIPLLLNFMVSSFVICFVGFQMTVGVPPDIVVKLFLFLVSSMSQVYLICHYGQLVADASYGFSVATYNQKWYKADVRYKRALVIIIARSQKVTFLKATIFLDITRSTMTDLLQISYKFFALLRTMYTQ
T1 sequence (Q9VNB5 1-486 partner): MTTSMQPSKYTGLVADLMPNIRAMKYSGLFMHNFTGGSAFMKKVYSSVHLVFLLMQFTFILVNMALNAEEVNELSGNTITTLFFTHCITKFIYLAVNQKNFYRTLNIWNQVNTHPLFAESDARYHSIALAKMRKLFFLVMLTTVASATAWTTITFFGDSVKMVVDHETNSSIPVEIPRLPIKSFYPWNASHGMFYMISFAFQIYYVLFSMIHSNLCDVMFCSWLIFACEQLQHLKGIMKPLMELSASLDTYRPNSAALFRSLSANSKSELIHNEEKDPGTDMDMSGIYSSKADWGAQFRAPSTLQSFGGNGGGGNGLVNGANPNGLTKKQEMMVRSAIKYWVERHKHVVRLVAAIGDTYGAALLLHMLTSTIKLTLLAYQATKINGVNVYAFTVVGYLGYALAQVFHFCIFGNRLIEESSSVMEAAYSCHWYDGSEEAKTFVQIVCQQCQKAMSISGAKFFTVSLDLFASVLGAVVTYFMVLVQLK
The assay can be described thus: Calcium ion fluorescence (GCaMP6) assay, OR85b stable HEK293 cell line. The assay is classed as cell-based. The conditions noted are these: for OR85b response (VUAA1-normalized) at 1 μM / OR85b response (VUAA1-normalized) at 10 μM / OR85b response (VUAA1-normalized) at 100 μM / Average response: OR85b cell line; for Average response: VUAA1-normalized response, mean of biological replicates. Here is the method: These VUAA1 normalized ∆F values were used to compare the different receptors and ligands.
The concentration-dependent effect of the reference ligands on their cognate cell lines was examined in more detail. Twelve different ligand concentrations were measured on each cell line in an overall 0.01 μM to 100 μM concentration range with 5 repetitions with three technical replicates each time.
Twelve thousand to 18,000 cells were plated into each well of a black wall, transparent bottom 384-well microplate (Greiner) 48 h or 72 h before the measurements and were simultaneously treated with 1 μg/mL doxycycline. […] The plate has 24 columns, thus we could record responses in up to eight different cell lines in each plate. On the day of the experiment, the growth medium was replaced with 20 µL assay buffer/well (140 mM NaCl, 5 mM KCl, 2 mM CaCl2, 1 mM MgCl2, 5 mM HEPES-Na, 20 mM glucose, pH 7.3, 340 mOsm). […] Baseline fluorescence (F0) was recorded for 5 s, after which 7 µL VOC buffer (140 mM NaCl, 5 mM KCl, 2 mM CaCl2, 1 mM MgCl2, 5 mM HEPES-Na, 31 mM glucose, 0.1% DMSO, pH 7.3, 340 mOsm) was injected into each well in one row and the fluorescence response was recorded for an additional 30 s, at a rate of one read/sec. VOC solutions (VOC buffer with 4× concentration of the final measured VOC concentration, 9 µL/well was injected) were measured on the same wells in a second round with the same protocol. Each individual concentration of a specific VOC sample was recorded in three wells for the same cell line on the same microplate. The raw data were exported in xls file format, F0 and FMAX values, and the fluorescence intensity changes (∆F) were calculated in Excel (Microsoft) (Supplementary file Data summary.xlsx) using the following equation: ΔF=FMAX-F0/F0 (see also Fig. 1C). On each plate, we recorded the response of each cell line to 50 µM VUAA1. The average of these ∆F values of each cell line were used to calculate the VUAA1-normalized values for the rest of the plate, by dividing VOC response ∆F values by the average VUAA1 response ∆F value of the corresponding OR cell line. Each VOC-OR combination was measured three times as technical replicates. […] The average of these replicates were used as one ∆F and VUAA1-normalized ∆F in the following analysis.
In the next rows we tested the reference VOCs (or other VOCs known to activate the corresponding cell lines), in order to test if all cell lines are responsive. The remaining rows were used to test VOCs with unknown effect.
The recorded FMAX, F0, ∆F, VUAA1-normalized ∆F values, as well as the OR name, the name of the tested sample, and the final concentration for each well were copied into supplementary file Data summary.xlsx, that was used to summarize all the plates recorded. Here, the averages of the measurements were calculated for each receptor-VOC-concentration combination.

Setting [1] is: ligand concentration 1 (unit not given), 0.05 threshold, values below shown as 0.
The mark [2] stands for this setting: ligand concentration 10 (unit not given), 0.05 threshold, values below shown as 0.
Setting [3] is: ligand concentration 100 (unit not given), 0.05 threshold, values below shown as 0.
[4] abbreviates: ligand concentration 1 (unit not given), threshold 0.05, below shown as 0.
Where [5] appears, read: ligand concentration 10 (unit not given), threshold 0.05, below shown as 0.
The mark [6] stands for this setting: ligand concentration 100 (unit not given), threshold 0.05, below shown as 0.
Where [7] appears, read: concentration 1, normalized fluorescence change, values below 0.05 threshold given as 0.
The mark [8] stands for this setting: concentration 10, normalized fluorescence change, values below 0.05 threshold given as 0.
Where [9] appears, read: concentration 100, normalized fluorescence change, values below 0.05 threshold given as 0.
The mark [10] stands for this setting: HEK293, read-out: OR85b response (VUAA1-normalized response).
[11] abbreviates: HEK293, read-out: OR85b Average response (VUAA1-normalized).

Turning to `C=Cc1ccccc1` [styrene], the “OR85b response (VUAA1-normalized) at 1 μM” value (VOC concentration 1 μM) was determined as 0.00. The “OR85b response (VUAA1-normalized) at 10 μM” value (VOC concentration 10 μM) is 0.00. Further, for the setting “VOC concentration 100 μM”, the “OR85b response (VUAA1-normalized) at 100 μM” value stood at 0.00. The Average response (cc. 1 µM) worked out at 0.00, the Average response (cc. 10 µM) came to 0.00 and the Average response (cc. 100 µM) is recorded as 0.0181. Further, the “DF norm AVERAGE OR85b” value under setting [1] stood at 0, the “DF norm AVERAGE OR85b” value under setting [2] amounted to 0 and the “DF norm AVERAGE OR85b” value under setting [3] is on record as 0.

Regarding `CC/C=C/CCO` [e3-hexenol], the Average response came to 0.00 (cc. 1 µM), 0.00 (cc. 10 µM) and 0.0284 (cc. 100 µM). The “DF norm AVERAGE OR85b” value is, setting by setting: under setting [4], 0; under setting [5], 0; under setting [6], 0.

Turning to (+)-beta-cedrene, the Average response runs as follows: (cc. 1 µM) 0.00; (cc. 10 µM) 0.0468; (cc. 100 µM) 0.0135. Further, the “OR85b response (VUAA1-normalized response)” value amounted to 0.00 (VOC concentration 1 μM), 0.00 (VOC concentration 10 μM) and 0.00 (VOC concentration 100 μM). The “DF norm AVERAGE OR85b” value is, setting by setting: under setting [7], 0; under setting [8], 0; under setting [9], 0.

Regarding `Cc1cccc(C)c1` [m-xylene], where the note is “VOC concentration 1 μM”, the “OR85b response (VUAA1-normalized) at 1 μM” value came out at 0.00. For the same molecule, for the setting “VOC concentration 10 μM”, the “OR85b response (VUAA1-normalized) at 10 μM” value is on record as 0.00. Also, for the setting “VOC concentration 100 μM”, the “OR85b response (VUAA1-normalized) at 100 μM” value is given as 0.09. Moreover, the Average response by setting is: (cc. 1 µM) 0.023; (cc. 10 µM) 0.00; (cc. 100 µM) 0.09. Further, the “DF norm AVERAGE OR85b” value is, setting by setting: under setting [4], 0; under setting [5], 0; under setting [6], 0.08801.

For the molecule `C=CC(O)C/C=C\CC` (stereo not drawn) [(5Z)-octa-1,5-dien-3-ol], the activation at 1 µM under setting [10] is 7%. In addition, the activation at 10 µM under setting [10] was 9%. For the same molecule, the activation at 100 µM under setting [10] was found to be 0%. The Average response (cc. 1 µM) turned out to be 0.07, the Average response (cc. 10 µM) turned out to be 0.09 and the Average response (cc. 100 µM) turned out to be 0.00. Moreover, the “DF norm AVERAGE OR85b” value runs as follows: under setting [7], 0.07163; under setting [8], 0.08739; under setting [9], 0.

For the molecule `CC1=CCC[C@@]2(C)[C@@H]3CC[C@]12CC3(C)C` [(−)-α-neoclovene], the Average response by setting is: (cc. 1 µM) 0.00; (cc. 10 µM) 0.00; (cc. 100 µM) 0.0165. Besides, the “OR85b response (VUAA1-normalized response)” value (VOC concentration 1 μM) turned out to be 0.00, the “OR85b response (VUAA1-normalized response)” value (VOC concentration 10 μM) turned out to be 0.00 and the “OR85b response (VUAA1-normalized response)” value (VOC concentration 100 μM) came to 0.00. The “DF norm AVERAGE OR85b” value is, setting by setting: under setting [7], 0; under setting [8], 0; under setting [9], 0.

For `C=C(C)C1CCC2(C)OC2C1` (single isomer, unassigned; (+)) [(+)-limonene oxide], the Average response reads like this: (cc. 1 µM) 0.00; (cc. 10 µM) 0.00; (cc. 100 µM) 0.00. In addition, the “OR85b response (VUAA1-normalized response)” value is listed as 0.00 (VOC concentration 1 μM), 0.00 (VOC concentration 10 μM) and 0.00 (VOC concentration 100 μM). Further, the “DF norm AVERAGE OR85b” value reads like this: under setting [7], 0; under setting [8], 0; under setting [9], 0.

As for `CC/C=C\CCO` [Z3-hexenol], the Average response worked out at 0.0533 (cc. 1 µM), 0.0426 (cc. 10 µM) and 0.00 (cc. 100 µM). In addition, the “DF norm AVERAGE OR85b” value is recorded as 0.05333 under setting [1], 0 under setting [2] and 0 under setting [3].

For `Cc1ccc(C)c(C)c1` [1,2,4-trimethylbenzene], the activation at 1 µM reads like this: under setting [11], 4%; under setting [10], 0%. Moreover, the activation at 10 µM is, setting by setting: under setting [11], 7%; under setting [10], 7.41%. For the same molecule, the activation at 100 µM came to 12% under setting [11] and 12% under setting [10]. Further, the Average response (cc. 1 µM) worked out at 0.0436, the Average response (cc. 10 µM) was determined as 0.0741 and the Average response (cc. 100 µM) was 0.12. Moreover, the “DF norm AVERAGE OR85b” value runs as follows: under setting [7], 0; under setting [8], 0.0741; under setting [9], 0.1212.

Take `CCCCCCCCC(CO)CCCCCC` (stereo not drawn) [2-hexyl-1-decanol]: the activation at 1 µM under setting [10] came to 13%. The activation at 10 µM under setting [10] is 7%. Under setting [10], the activation at 100 µM worked out at 8%. Moreover, the Average response by setting is: (cc. 1 µM) 0.13; (cc. 10 µM) 0.07; (cc. 100 µM) 0.08. For the same molecule, the “DF norm AVERAGE OR85b” value is, setting by setting: under setting [7], 0.1336; under setting [8], 0.06997; under setting [9], 0.07977.

With `C=C1[C@H]2CC[C@@H]3[C@H]2C(C)(C)CCC[C@]13C` [(+)-longifolene], the Average response is, setting by setting: (cc. 1 µM) 0.08; (cc. 10 µM) 0.11; (cc. 100 µM) 0.05. In addition, the “OR85b response (VUAA1-normalized response)” value is, setting by setting: (VOC concentration 1 μM) 0.08; (VOC concentration 10 μM) 0.11; (VOC concentration 100 μM) 0.00. Further, the “DF norm AVERAGE OR85b” value is, setting by setting: under setting [7], 0.0834; under setting [8], 0.1092; under setting [9], 0.

Take `Cc1ccccc1C` [o-xylene]: the “OR85b response (VUAA1-normalized) at 1 μM” value (VOC concentration 1 μM) stood at 0.08. The “OR85b response (VUAA1-normalized) at 10 μM” value (VOC concentration 10 μM) is reported as 0.00. For the same molecule, the “OR85b response (VUAA1-normalized) at 100 μM” value (VOC concentration 100 μM) is 0.08. Besides, the Average response (cc. 1 µM) was found to be 0.08, the Average response (cc. 10 µM) amounted to 0.03 and the Average response (cc. 100 µM) turned out to be 0.08. Moreover, the “DF norm AVERAGE OR85b” value runs as follows: under setting [4], 0.08035; under setting [5], 0; under setting [6], 0.08274.
